Experimental data published in US20120028837A1, “RAPID SCREEN FOR REPRODUCTIVE TOXICANTS” (PRESIDENT AND FELLOWS OF HARVARD COLLEGE, priority 2010, published 2012).

Key:
[1] = system: H2B::mCherry; γ-tubulin::GFP transgenic worms; conditions: OD57 (pie-1::mCherry::H2B; pie-1::GFP::gamma tubulin), C. elegans, in vivo
Description: 60 first mitosis in ethanol and BPA exposed H2B::mCherry; γ-tubulin::GFP transgenic worms were captured by live imaging. While normal pronuclear fusion and chromosomal alignment and segregation in ethanol controls was observed, the first division of BPA exposed embryos was highly abnormal. […] In some instances, multiple spindle poles were apparent.
Live Imaging. For live imaging, a pie-1::mCherry::H2B; pie-1::GFP::gamma tubulin OD57 strain was used. The strain was incubated at 25° C. 24 hours prior to imaging. Images were captured using the Leica-Deltavision system described above. Worms were immobilized on an agarose pad by sectioning of the head and images of the first cell division were captured at a rate of one image every 10 seconds for 5 minutes.

C. elegans germline [2] = test: Synaptonemal complex and chromatin integrity in transition zone and pachytene (HTP-3, SYP-1, HIM-8, DAPI); format: in vivo
Excerpt: To examine meiotic chromosome synapsis in C. elegans following BPA exposure, assembly of the synaptonemal complex was examined by assessing the localization of the axial element protein HTP-3 (a paralogue of the axial component HIM-3 required for proper synapsis and pairing of homologous chromosomes) and the central region protein SYP-1 [45], as the nuclei enter meiosis. As nuclei exit mitosis and progress into meiosis in wild type germlines, HTP-3 and SYP-1 are assembled onto the chromatin as foci and short tracks which increase in length through the transition zone. By pachytene, the polymerization of the SC is completed and both proteins form fully elongated tracks spanning the entire length of the homologous chromosomes. Following exposure to BPA, the kinetics and extent of assembly of HTP-3 and SYP-1 onto the chromatin during transition zone were not affected when compared to control (n=10 gonads).
These abnormal nuclei were not simply apoptotic nuclei as they were not specifically found near the bend of the gonad, where germline nuclei were cleared by apoptosis but instead could be found throughout pachytene. As disruption of the integrity of the SC could lead to a separation of the homologous chromosomes, the localization of the X specific pairing center component HIM-8 was examined. In C. elegans, specific loci, termed pairing centers, on chromosomes allow for the physical interaction between homologous pairs. HIM-8 along with other pairing center components associate with the pairing centers and the nuclear envelope and mediate homologous pairing.

C. elegans germline [3] = test: Size of mitotic zone of the germline (DAPI, phospho-histone H3 staining); conditions: in vivo
Excerpt: In C. elegans, the germline is comprised of two main compartments, a mitotic region (the premeiotic tip), where nuclei are under the influence of the distal tip cell that maintains them in a proliferative state; and the meiotic region, where nuclei progress through the stages of Prophase I before being fertilized. The mitotic compartment of the worm gonad following BPA exposure was examined.
BPA bears endocrine disrupting activity in many developmental contexts including gonadal, brain and mammary gland development. BPA has affinity for multiple members of the estrogen receptors family, in particular BPA binds to the human estrogen receptor alpha (ERα) and ERβ as well as estrogen-related receptor gamma (ERR-γ) and in C. elegans with nuclear hormone receptor NHR-14 which also binds estrogen. […] Two hallmarks of exposure to BPA were examined, the decrease in the size of the proliferative zone and the condensation defects observed at diakinesis, as they are both highly penetrant and consistent phenotypes. […] Similarly to the experiments described above, the size of the mitotic zone was quantified as well as condensation defects at diakinesis.
(§1) Growing Conditions and Drug Exposures. Worms were cultured according to [23] at 20° C. on NGM plates without cholesterol. […] Exposure was carried from embryogenesis to adulthood by plating sodium hypochloride treated eggs onto drug and control plates and incubated at 20° C. for four days.
Antibody Staining. DAN staining, immunostaining and analysis of stained meiotic nuclei were performed as in [25] except for ATL-1 and AIR-2 antibodies were dissected gonads were subjected to a 1% fixation method as described in [27]. […] The secondary antibodies used were: Cy3 anti-rabbit, FITC anti-guinea-pig and FITC anti-mouse (Jackson Immunochemicals), each at 1:100, Stacks of 0.2 μm slices were captured using a Leica microscope, coupled to the DeltaVision fluorescence microscope system (Applied Precision). […]

C. elegans = conditions: in vivo, 4 days, 1 mM
Description: To address whether BPA also affects C. elegans reproduction, worms were exposed to various concentrations of BPA under several culture conditions. The parameters tested were: BPA concentration (100 uM, 500 uM or 1 mM), vehicle (DMSO or ethanol), cholesterol concentration (5 ug/ml, 0.5 ug/ml or none) and culture method (liquid or plate).
as §1

xol-1::GFP worms = test: Lethality, chemical sensitivity of xol-1::GFP strain; format: in vivo, C. elegans; conditions: 100 μM, 500 μM and 1 mM, four days from eggs to adulthood, 25 worms
Description: The sensitivity of the xol-1::GFP, nx3 strain compared to the xol-1::GFP strain was assayed by exposing 25 worms for four days (from eggs to adulthood) to a range of concentration of Bisphenol A: 100 μM, 500 μM and 1 mM. The nx3 cuticle mutation was expected to confer increased sensitivity to BPA.

SMILES: CC(C)(c1ccc(O)cc1)c1ccc(O)cc1 [BPA, Bisphenol A]
- one-cell embryos failing to align on the metaphase plate and/or segregate properly [1]: 9/60
- pachytene nuclei with DAPI stained bodies or fragments (C. elegans germline [2]; BPA exposure): about 10%
- kinetics and extent of assembly of HTP-3 and SYP-1 onto chromatin during transition zone (C. elegans germline [2]; BPA exposure vs control): not affected
- HIM-8 foci per nucleus throughout pachytene (C. elegans germline [2]; BPA treated worms): 1 focus per nucleus
- chromosome synapsis in pachytene nuclei (SYP-1 staining) (C. elegans germline [2]; BPA treated worms): defects in chromosome synapsis
- size of the premeiotic tip a day later (C. elegans germline [3]): No significant increase
- embryonic viability (C. elegans): 1.5 % of controls
- reduction in the number of eggs laid (brood size) compared to vehicle (C. elegans): 4 fold
- lethality (xol-1::GFP worms): 0%
